Test results: publication PMC5274652, “Antagonizing Retinoic Acid Receptors Increases Myeloid Cell Production by Cultured Human Hematopoietic Stem Cells” (Archivum Immunologiae et Therapiae Experimentalis, 2016)

What was measured:
KG1 cells = assay: Differentiation of KG1 cells (CD11b/CD14 flow cytometry); type: cell-based, human; conditions: KG1 cells, 1 μM combined with 10 nM 1,25D, 96 h
Method: (§1) NB-4 and KG1 cells were obtained from the German Resource Center for Biological Material (DSMZ GmbH, Braunschweig, Germany). The cells were grown in RPMI-1640 medium supplemented with 10 % fetal bovine serum (FBS), 100 U/ml penicillin, and 100 µg/ml streptomycin (Sigma, St Louis, MO, USA). Cells were grown at 37 °C in 5 % CO2.
(§2) The expression of differentiation markers at the cell surface was determined by flow cytometry. Differentiation of NB-4 and KG1 cells was measured by staining using the monoclonal antibodies CD11b-FITC and CD14-PE and appropriately labeled isotype controls (all from ImmunoTools, Friesoythe, Germany). Differentiation of human CD34^+ve cells was measured by triple-color staining using various cocktails of phycoerythrin-, fluorescein isothyocyanate-, and PerCP-monoclonal antibodies (from Becton–Dickinson, San Jose, CA, USA). The markers used to identify cell populations were as follows: CD45^+ve leukocytes; CD34^+ve/CD133^+ve HSCs; CD33^+ve/CD13^+ve immature myeloid; CD117^+ve myeloblasts and promyelocytes; CD11b^+ve/CD15^+ve mature myeloid; CD11b^+ve/CD65^+ve neutrophils; CD11b^+ve/CD14^+ve monocytes; glycophorin^+ve A erythroid cells; CD61^+ve megakaryoblasts and platelets; CD2^+ve/CD5^+ve/CD7^+ve T cells and NK cells; CD56^+ve NK cells; CD19^+ve/CD20^+ve B cells; and CD10^+ve B lymphocyte progenitors; and present on mature neutrophils and DR^+ve progenitors and present on mature monocytes. The cells were stained with 1 µl of the fluorescently labeled antibody (or the appropriate control immunoglobulin) for 1 h on ice. Next, they were washed with ice-cold phosphate-buffered saline (PBS) and suspended in 0.5 ml PBS supplemented with 0.1 % bovine serum albumin (Sigma, St Louis, MO, USA) prior to analysis on FACS Calibur flow cytometer (Becton–Dickinson, San Jose, CA, USA). The acquisition parameters were set for an isotype control. Cells were analyzed using a FACSCalibur, and data analysis was performed using the CellQuest Pro software (Becton–Dickinson, San Jose, CA, USA).

RARα = molecular target: T1, RARα (Homo sapiens, UniProt P10276)
T1 sequence (P10276 183-417 limits assumed): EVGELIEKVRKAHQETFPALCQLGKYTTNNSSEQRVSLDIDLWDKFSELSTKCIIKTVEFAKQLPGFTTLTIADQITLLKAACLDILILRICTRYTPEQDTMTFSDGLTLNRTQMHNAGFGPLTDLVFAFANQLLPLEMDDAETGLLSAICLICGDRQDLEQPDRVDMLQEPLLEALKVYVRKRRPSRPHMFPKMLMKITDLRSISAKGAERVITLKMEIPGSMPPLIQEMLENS
From the text: (§3) For transactivation studies, we used CV-1 kidney fibroblast cells and LNCaP prostate adenocarcinoma cells that can be readily and reproducibly transfected with plasmids and reporters. Transactivation assays using CV-1 cells were undertaken essentially as described previously (Nagpal et al. [1995]). Briefly, CV-1 cells were transiently transfected with a plasmid-containing ERE-tk-Luc promoter-reporter construct using Lipofectamine as described in the manufacturer’s protocol (Fisher Scientific, Loughborough, UK). ERE-tk-Luc transcript comprises a luciferase reporter under control of an estrogen receptor response element. The cells were also transiently transfected with expression vector encoding a fusion protein containing the ligand-binding domain of RARα, RARβ, or RARγ fused to an estrogen receptor DNA-binding domain. Twenty-four hours after transfection, the cells were treated with retinoids under test for 16 h in culture medium-containing 2.5 % charcoal-treated FBS and lysed for determination of luciferase and β-galactosidase activities. Luciferase activity was measured using the Dual-Luciferase Reporter 100 Assay System (Promega, Southampton, UK), and β-galactosidase activity was determined by colorimetric assay. The reporter activity was normalized against β-galactosidase activity. […]

NB-4 cells = assay: Differentiation of NB-4 cells (CD11b/CD14 flow cytometry); type: cell-based, human; conditions: NB-4 cells, 96 h
Method: as §1, §2

RARγ = molecular target: T2, RARγ (Homo sapiens, UniProt P13631); assay: Retinoid receptor transactivation assay in transfected CV-1 cells, RARγ; type: cell-based
T2 construct: expressed in transfected cells; host or cells: CV-1 kidney fibroblast cells
T2 sequence (P13631 185-419 limits assumed): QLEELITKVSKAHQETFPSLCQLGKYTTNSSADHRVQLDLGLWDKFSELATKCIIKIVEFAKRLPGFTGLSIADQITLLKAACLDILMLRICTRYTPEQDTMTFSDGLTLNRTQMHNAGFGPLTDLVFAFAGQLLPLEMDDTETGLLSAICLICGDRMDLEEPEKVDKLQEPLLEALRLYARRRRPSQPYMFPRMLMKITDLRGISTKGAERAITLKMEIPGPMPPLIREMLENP
From the text: as §3

RARβ = molecular target: T3, RARβ (Homo sapiens, UniProt P10826); assay: Retinoid receptor transactivation assay in transfected CV-1 cells, RARβ; type: cell-based
T3 construct: expressed in transfected cells; host or cells: CV-1 kidney fibroblast cells
T3 sequence (P10826 183-417 limits assumed): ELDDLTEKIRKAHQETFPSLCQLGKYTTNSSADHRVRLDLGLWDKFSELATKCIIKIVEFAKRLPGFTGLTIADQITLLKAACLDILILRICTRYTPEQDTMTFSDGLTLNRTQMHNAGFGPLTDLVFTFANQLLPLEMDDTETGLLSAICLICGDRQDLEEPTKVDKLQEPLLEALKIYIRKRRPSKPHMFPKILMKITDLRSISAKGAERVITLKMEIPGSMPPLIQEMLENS
From the text: as §3

zebra fish embryos = test system: zebra fish embryos; set-up: method as in Wai et al. 2015; conditions: 10 nM, ref Wai et al. 2015; cited from earlier work

| concentration required to activate RARα (reporter assays) (RARα; discussion, order of magnitude) | ATRA concentration at which maximal effect on RARα transactivation is observed (RARα; transfected CV-1 cells) | concentration at which RARγ is activated (reporter assays) (RARγ; discussion, order of magnitude) | ATRA concentration of maximal activation, RARγ (RARγ; transfected CV-1 cells) | ATRA concentration of maximal activation, RARβ (RARβ) | Compound | CD11b+ve/CD14+ve cells (monocyte differentiation) (KG1 cells) | CD11b+ve/CD14+ve cells (monocyte differentiation) (NB-4 cells; 1 μM combined with 10 nM 1,25D) | CD11b+ve/CD14+ve cells (monocyte differentiation) (NB-4 cells; 1 μM, alone) | effect on stem cell populations and development (zebra fish embryos) |
| --- | --- | --- | --- | --- | --- | --- | --- | --- | --- |
| ~10^−8 M | ~10^−7 M | ~10^−10 M | ~ 5 × 10^−9 M | ~ 5 × 10^−9 M | CC1=C(/C=C/C(C)=C/C=C/C(C)=C/C(=O)O)C(C)(C)CCC1 [ATRA, all-trans retinoic acid] | 26% | ~ 36% | ~ 10% | – |
| – | – | – | – | – | CC1(C)CCC(C)(C)c2cc(/C(=N\O)c3cc4cc(C(=O)O)ccc4[nH]3)ccc21 [AGN205327] | – | – | – | Stem cell populations were maintained at the expense of the development of bones and neural ganglia |
